# Experimental data as given in patent publication US20130303509A1, “NAMPT INHIBITORS” (AbbVie Inc., priority 2012, published 2013).
# Test system: PC3 cells
# Assay: NAMPT Cell Proliferation Assay
# Format: cell-based
# Conditions: Homo sapiens, PC-3, 120 h, 5 days incubation, cell viability by Cell Titer Glo
# How it was run: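 Five-day CellTiter-Glo viability readout in PC3 cells grown in RPMI/10% heat-inactivated FBS. Compounds added after overnight attachment as a 10-fold dilution series, […]. Percent inhibition fitted to sigmoidal dose-response to derive IC50.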
row,SMILES,IC50
1,"O=C(Nc1ccc(OC2CCN(C(=O)c3ccsc3)CC2)cc1)C1CN(c2ccnnc2)C1 [Example 278, 1-(pyridazin-4-yl)-N-(4-{[1-(thiophen-3-ylcarbonyl)piperidin-4-yl]oxy}phenyl)azetidine-3-carboxamide]",79.1 nM
2,"O=C(Nc1ccc(OC2CCN(C(=O)c3ccccc3Cl)CC2)cc1)C1CN(c2ccnnc2)C1 [Example 279, N-(4-{[1-(2-chlorobenzoyl)piperidin-4-yl]oxy}phenyl)-1-(pyridazin-4-yl)azetidine-3-carboxamide]",9.72 nM
3,"CC(C)(C)C(=O)N1CCC(Oc2ccc(NC(=O)C3CN(c4ccnnc4)C3)cc2)CC1 [Example 280, N-(4-{[1-(2,2-dimethylpropanoyl)piperidin-4-yl]oxy}phenyl)-1-(pyridazin-4-yl)azetidine-3-carboxamide]",71.9 nM
4,"CC(C)(C(=O)N1CCC(Oc2ccc(NC(=O)C3CN(c4ccnnc4)C3)cc2)CC1)c1ccccc1 [Example 281, N-(4-{[1-(2-methyl-2-phenylpropanoyl)piperidin-4-yl]oxy}phenyl)-1-(pyridazin-4-yl)azetidine-3-carboxamide]",16.9 nM
5,"CC(=O)N1CCC(Oc2ccc(NC(=O)C3CN(c4ccnnc4)C3)cc2)CC1 [Example 282, N-{4-[(1-acetylpiperidin-4-yl)oxy]phenyl}-1-(pyridazin-4-yl)azetidine-3-carboxamide]",629 nM
6,"O=C(Nc1ccc(OC2CCN(C(=O)c3nccs3)CC2)cc1)C1CN(c2ccnnc2)C1 [Example 283, 1-(pyridazin-4-yl)-N-(4-{[1-(1,3-thiazol-2-ylcarbonyl)piperidin-4-yl]oxy}phenyl)azetidine-3-carboxamide]",72.5 nM
7,"O=C(Nc1ccc(OC2CCN(C(=O)c3ccc(F)cc3F)CC2)cc1)C1CN(c2ccnnc2)C1 [Example 284, N-(4-{[1-(2,4-difluorobenzoyl)piperidin-4-yl]oxy}phenyl)-1-(pyridazin-4-yl)azetidine-3-carboxamide]",66.6 nM
8,"O=C(Nc1ccc(OC2CCN(C(=O)c3cccc(C(F)(F)F)c3)CC2)cc1)C1CN(c2ccnnc2)C1 [Example 285, 1-(pyridazin-4-yl)-N-[4-({1-[3-(trifluoromethyl)benzoyl]piperidin-4-yl}oxy)phenyl]azetidine-3-carboxamide]",69.2 nM
9,"O=C(Nc1ccc(OC2CCN(C(=O)c3cccc(F)c3)CC2)cc1)C1CN(c2ccnnc2)C1 [Example 286, N-(4-{[1-(3-fluorobenzoyl)piperidin-4-yl]oxy}phenyl)-1-(pyridazin-4-yl)azetidine-3-carboxamide]",74 nM
10,"O=C(Nc1ccc(OC2CCN(C(=O)c3ccc(C(F)(F)F)cc3)CC2)cc1)C1CN(c2ccnnc2)C1 [Example 287, 1-(pyridazin-4-yl)-N-[4-({1-[4-(trifluoromethyl)benzoyl]piperidin-4-yl}oxy)phenyl]azetidine-3-carboxamide]",121 nM
11,"O=C(Nc1ccc(OC2CCN(C(=O)Cc3cccc(F)c3)CC2)cc1)C1CN(c2ccnnc2)C1 [Example 288, N-[4-({1-[(3-fluorophenyl)acetyl]piperidin-4-yl}oxy)phenyl]-1-(pyridazin-4-yl)azetidine-3-carboxamide]",24.8 nM
12,"O=C(Nc1ccc(OC2CCN(C(=O)c3ccccc3F)CC2)cc1)C1CN(c2ccnnc2)C1 [Example 289, N-(4-{[1-(2-fluorobenzoyl)piperidin-4-yl]oxy}phenyl)-1-(pyridazin-4-yl)azetidine-3-carboxamide]",53.2 nM
13,"O=C(Nc1ccc(OC2CCN(C(=O)c3ccc(OC(F)(F)F)cc3)CC2)cc1)C1CN(c2ccnnc2)C1 [Example 290, 1-(pyridazin-4-yl)-N-[4-({1-[4-(trifluoromethoxy)benzoyl]piperidin-4-yl}oxy)phenyl]azetidine-3-carboxamide]",80.7 nM
14,"O=C(Nc1ccc(OC2CCN(C(=O)Cc3cc(F)cc(F)c3)CC2)cc1)C1CN(c2ccnnc2)C1 [Example 291, N-[4-({1-[(3,5-difluorophenyl)acetyl]piperidin-4-yl}oxy)phenyl]-1-(pyridazin-4-yl)azetidine-3-carboxamide]",73.6 nM
15,"O=C(Nc1ccc(OC2CCN(C(=O)c3cccc(OC(F)(F)F)c3)CC2)cc1)C1CN(c2ccnnc2)C1 [Example 292, 1-(pyridazin-4-yl)-N-[4-({1-[3-(trifluoromethoxy)benzoyl]piperidin-4-yl}oxy)phenyl]azetidine-3-carboxamide]",93.4 nM
16,"O=C(Nc1ccc(OC2CCN(C(=O)CC3CC3)CC2)cc1)C1CN(c2ccnnc2)C1 [Example 293, N-(4-{[1-(cyclopropylacetyl)piperidin-4-yl]oxy}phenyl)-1-(pyridazin-4-yl)azetidine-3-carboxamide]",72.3 nM
17,"CC(C)C(=O)N1CCC(Oc2ccc(NC(=O)C3CN(c4ccnnc4)C3)cc2)CC1 [Example 294, N-(4-{[1-(2-methylpropanoyl)piperidin-4-yl]oxy}phenyl)-1-(pyridazin-4-yl)azetidine-3-carboxamide]",83.2 nM
18,"O=C(Nc1ccc(OC2CCN(C(=O)c3cccc(Cl)c3)CC2)cc1)C1CN(c2ccnnc2)C1 [Example 295, N-(4-{[1-(3-chlorobenzoyl)piperidin-4-yl]oxy}phenyl)-1-(pyridazin-4-yl)azetidine-3-carboxamide]",71.5 nM
19,"O=C(Nc1ccc(OC2CCN(C(=O)c3ccccn3)CC2)cc1)C1CN(c2ccnnc2)C1 [Example 296, 1-(pyridazin-4-yl)-N-(4-{[1-(pyridin-2-ylcarbonyl)piperidin-4-yl]oxy}phenyl)azetidine-3-carboxamide]",68.9 nM
20,"O=C(Nc1ccc(OC2CCN(C(=O)c3ccc(Cl)cc3)CC2)cc1)C1CN(c2ccnnc2)C1 [Example 297, N-(4-{[1-(4-chlorobenzoyl)piperidin-4-yl]oxy}phenyl)-1-(pyridazin-4-yl)azetidine-3-carboxamide]",93.2 nM
21,"O=C(Nc1ccc(OC2CCN(C(=O)C3CCOC3)CC2)cc1)C1CN(c2ccnnc2)C1 (stereo not shown) [Example 298, 1-(pyridazin-4-yl)-N-(4-{[1-(tetrahydrofuran-3-ylcarbonyl)piperidin-4-yl]oxy}phenyl)azetidine-3-carboxamide]",97.9 nM
22,"O=C(Nc1ccc(OC2CCN(C(=O)c3cc(F)cc(F)c3)CC2)cc1)C1CN(c2ccnnc2)C1 [Example 299, N-(4-{[1-(3,5-difluorobenzoyl)piperidin-4-yl]oxy}phenyl)-1-(pyridazin-4-yl)azetidine-3-carboxamide]",84.6 nM
23,"CCC(C)(C)C(=O)N1CCC(Oc2ccc(NC(=O)C3CN(c4ccnnc4)C3)cc2)CC1 [Example 300, N-(4-{[1-(2,2-dimethylbutanoyl)piperidin-4-yl]oxy}phenyl)-1-(pyridazin-4-yl)azetidine-3-carboxamide]",25.9 nM
24,"O=C(Nc1ccc(OC2CCN(C(=O)C3CC3)CC2)cc1)C1CN(c2ccnnc2)C1 [Example 301, N-(4-{[1-(cyclopropylcarbonyl)piperidin-4-yl]oxy}phenyl)-1-(pyridazin-4-yl)azetidine-3-carboxamide]",90.5 nM
25,"O=C(Nc1ccc(OC2CCN(C(=O)C3CCCO3)CC2)cc1)C1CN(c2ccnnc2)C1 (stereo not shown) [Example 302, 1-(pyridazin-4-yl)-N-(4-{[1-(tetrahydrofuran-2-ylcarbonyl)piperidin-4-yl]oxy}phenyl)azetidine-3-carboxamide]",82.4 nM
